{
  "source": "ChEMBL document CHEMBL4825696",
  "about": "“Development of photocontrolled BRD4 PROTACs for tongue squamous cell carcinoma (TSCC)” (Eur J Med Chem, 2021)",
  "key": {"[1]": {"target": "T1, Protein cereblon/Bromodomain-containing protein 4 (Homo sapiens) (UniProt O60885+Q96SW2)", "assay": "PROTAC activity at CRBN/BRD4 in human HEK293T cells assessed as BRD4 degradation by measuring downregulation of c-Myc level by western blot analysis", "type": "cell-based"}, "HN-6 [2]": {"system": "HN-6", "assay": "Antitumor activity against human HN-6 cells xenografted in nude mouse assessed as tumor growth inhibition at 50 mg/kg, ip administered every day for 2 weeks and measured every 2 days", "type": "functional, organism-based"}, "HN-6 [3]": {"system": "HN-6", "assay": "Antitumour activity against human HN-6 cells xenografted in zebrafish embryo assessed as inhibition of tumour growth at 50 uM measured after 72 hrs by microscopic method", "type": "functional"}, "[4]": {"assay": "Induction of apoptosis in human HN-6 cells assessed as necrotic cells at 5 uM measured after 1 hr by AnnexinV-FITC/propidium iodide staining based flow cytometry analysis (reference value: 3.37%)", "type": "functional"}, "[5]": {"assay": "(§1) Antiproliferative activity against human HN-6 cells assessed as reduction in cell viability incubated for 24 hrs by CCK-8 assay", "type": "functional, cell-based", "conditions": "HN-6, 24 h"}, "[6]": {"assay": "Induction of apoptosis in human HN-6 cells assessed as late apoptotic cells at 5 uM measured after 1 hr by AnnexinV-FITC/propidium iodide staining based flow cytometry analysis (reference value: 1.46%)", "type": "functional"}, "[7]": {"assay": "Induction of apoptosis in human HN-6 cells assessed as viable cells at 5 uM measured after 1 hr by AnnexinV-FITC/propidium iodide staining based flow cytometry analysis (reference value: 93.62%)", "type": "functional", "conditions": "read-out: Activity"}, "[8]": {"target": "T1, Protein cereblon/Bromodomain-containing protein 4 (Homo sapiens)", "assay": "PROTAC activity at CBRN/BRD4 in human HEK293T cells assessed as degradation of BRD4 measured after 30 mins by Fluorescence polarization competitive binding assay", "type": "cell-based"}, "[9]": {"assay": "Induction of apoptosis in human HN-6 cells assessed as early apoptotic cells at 5 uM measured after 1 hr by AnnexinV-FITC/propidium iodide staining based flow cytometry analysis (Rvb =1.54%)", "type": "functional"}, "[10]": {"target": "T1, Protein cereblon/Bromodomain-containing protein 4 (Homo sapiens)", "assay": "PROTAC activity at CRBN/BRD4 in human HEK293T cells assessed as BRD4 degradation by measuring downregulation of BRD4 level at 0.1 to 10 uM by western blot analysis", "type": "cell-based", "conditions": "dose 0.1-10 µM"}, "[11]": {"assay": "(§2) Photolysis of compound in DMSO-d6 assessed as 2-((S)-4-(4-chlorophenyl)-2,3,9-trimethyl-6H-thieno[3,2-f][1,2,4]triazolo[4,3a][1,4]diazepin-6-yl)-N-(4-(2-((2-(2,6-dioxopiperidin-3-yl)-1,3-dioxoisoindolin-4-yl)oxy)acetamido)butyl)acetamide formation at 10 mM incubated for 60 mins under 365 nm UVA irradiation by 1H-NMR analysis", "type": "functional"}, "[12]": {"assay": "Induction of apoptosis in human HN-6 cells assessed as early apoptotic cells at 5 uM irradiated with 365 nm UVA light for 15 mins followed by incubation with compound for 24 hrs by AnnexinV-FITC/propidium iodide staining based flow cytometry analysis (reference value: 5.3%)", "type": "functional"}, "[13]": {"assay": "Induction of apoptosis in human HN-6 cells assessed as viable cells at 5 uM irradiated with 365 nm UVA light for 15 mins followed by incubation with compound for 24 hrs by AnnexinV-FITC/propidium iodide staining based flow cytometry analysis (reference value: 90.31%)", "type": "functional", "conditions": "HN-6, light or radiation study, read-out: Activity"}, "[14]": {"assay": "as §2, with “acetonitrile” for “DMSO-d6”, “40 uM” for “10 mM”, “UV-Vis spectral” for “1H-NMR”", "type": "functional"}, "HN-6 [15]": {"system": "HN-6", "assay": "Antitumour activity against human HN-6 cells xenografted in zebrafish embryo assessed as inhibition of tumour growth at 50 uM irradiated with 365 nm UVA light for 20 mins and measured after 3 days by microscopic method", "type": "functional", "conditions": "time 3.0 day"}, "[16]": {"target": "T1, Protein cereblon/Bromodomain-containing protein 4 (Homo sapiens)", "assay": "PhotoPROTAC activity at CRBN/BRD4 in human HEK293T cells assessed as BRD4 degradation by measuring downregulation of c-Myc level pretreated for 1 hr followed by irradiation with 365 nm UVA light for 15 mins and measured after 24 hrs by Western blot analysis", "type": "cell-based", "conditions": "time 1515.0 min"}, "HN-6 [17]": {"system": "HN-6", "assay": "as §1", "type": "functional, cell-based"}, "[18]": {"target": "T1, Protein cereblon/Bromodomain-containing protein 4 (Homo sapiens)", "assay": "PhotoPROTAC activity at CBRN/BRD4 in human HEK293T cells assessed as degradation of BRD4 irradiated with 365 nm UVA light for 15 mins followed by incubation with compound for 30 mins by Fluorescence polarization competitive binding assay", "type": "cell-based"}, "[19]": {"assay": "Induction of apoptosis in human HN-6 cells assessed as late apoptotic cells at 5 uM irradiated with 365 nm UVA light for 15 mins followed by incubation with compound for 24 hrs by AnnexinV-FITC/propidium iodide staining based flow cytometry analysis (Rvb =1.69%)", "type": "functional"}, "[20]": {"assay": "Induction of apoptosis in human HN-6 cells assessed as necrotic cells at 5 uM irradiated with 365 nm UVA light for 15 mins followed by incubation with compound for 24 hrs by AnnexinV-FITC/propidium iodide staining based flow cytometry analysis (reference value: 2.7%)", "type": "functional"}, "HN-6 [21]": {"system": "HN-6", "assay": "Antiproliferative activity against human HN-6 cells assessed as reduction in cell viability irradiated with 365 nm UVA light for 15 mins followed by incubation with compound for 24 hrs by CCK-8 assay", "type": "functional, cell-based"}, "[22]": {"target": "T1, Protein cereblon/Bromodomain-containing protein 4 (Homo sapiens)", "assay": "PhotoPROTAC activity at CRBN/BRD4 in human HEK293T cells assessed as BRD4 degradation by measuring downregulation of BRD4 level at 3 uM pretreated for 1 hr followed by irradiation with 365 nm UVA light for 15 mins and measured after 24 hrs by Western blot analysis", "type": "cell-based", "conditions": "time 1515.0 min"}, "[23]": {"assay": "as §2, with “acetonitrile” for “DMSO-d6”, “40 uM” for “10 mM”, “HPLC” for “1H-NMR”", "type": "functional"}, "[24]": {"assay": "Photolysis of compound in acetonitrile assessed as 2-(2,6-dioxo-3-piperidyl)isoindoline-1,3-dione formation at 40 uM incubated for 40 mins under 365 nm UVA irradiation by UV-Vis spectral analysis", "type": "functional"}, "[25]": {"assay": "Photolysis of compound in acetonitrile assessed as 2-(2,6-dioxo-3-piperidyl)isoindoline-1,3-dione formation at 40 uM incubated for 40 mins under 365 nm UVA irradiation by HPLC analysis", "type": "functional"}},
  "note": "Active and inactive are the calls of the source. The rule behind the calls is not given here.",
  "data": [
    {"smiles": "Cc1sc2c(c1C)C(c1ccc(Cl)cc1)=N[C@@H](CC(=O)NCCCCNC(=O)COc1cccc3c1C(=O)N(C1CCC(=O)NC1=O)C3=O)c1nnc(C)n1-2", "note": "(stereo not given in full)", "values": [
      {"measurement": "Activity", "setting": "[1]", "value": "Active"},
      {"measurement": "Activity", "setting": "HN-6 [2]", "value": "Active"},
      {"measurement": "Activity", "setting": "HN-6 [3]", "value": "Active"},
      {"measurement": "Activity", "setting": "[4]", "value": 3, "unit": "%"},
      {"measurement": "IC50", "setting": "[5]", "value": 7.07, "unit": "µM"},
      {"measurement": "Activity", "setting": "[6]", "value": 12.17, "unit": "%"},
      {"measurement": "viability at 5 µM", "setting": "[7]", "value": 51.1, "unit": "%"},
      {"measurement": "Activity", "setting": "[8]", "value": "Dose-Dependent Effect"},
      {"measurement": "Activity", "setting": "[9]", "value": 33.75, "unit": "%"},
      {"measurement": "Activity", "setting": "[10]", "value": "Active"}
    ]},
    {"smiles": "COc1cc(CN2C(=O)CCC(N3C(=O)c4cccc(OCC(=O)NCCCCNC(=O)C[C@@H]5N=C(c6ccc(Cl)cc6)c6c(sc(C)c6C)-n6c(C)nnc65)c4C3=O)C2=O)c([N+](=O)[O-])cc1OC", "note": "(stereo not given in full)", "values": [
      {"measurement": "Drug metabolism", "setting": "[11]", "value": "Metabolite detected"},
      {"measurement": "Activity", "setting": "HN-6 [3]", "value": "inactive"},
      {"measurement": "Activity", "setting": "[4]", "value": 2.55, "unit": "%"},
      {"measurement": "Activity", "setting": "[12]", "value": 19.29, "unit": "%"},
      {"measurement": "viability at 5 µM", "setting": "[13]", "value": 68.1, "unit": "%"},
      {"measurement": "Drug metabolism", "setting": "[14]", "value": "Metabolite detected"},
      {"measurement": "Activity", "setting": "HN-6 [15]", "value": "Active"},
      {"measurement": "Activity", "setting": "[16]", "value": "Active"},
      {"measurement": "Activity", "setting": "HN-6 [17]", "value": "inactive"},
      {"measurement": "Activity", "setting": "[6]", "value": 4.05, "unit": "%"},
      {"measurement": "Activity", "setting": "[18]", "value": "Dose-Dependent Effect"},
      {"measurement": "Activity", "setting": "[19]", "value": 8.35, "unit": "%"},
      {"measurement": "Activity", "setting": "[20]", "value": 4.24, "unit": "%"},
      {"measurement": "viability at 5 µM", "setting": "[7]", "value": 82.5, "unit": "%"},
      {"measurement": "Activity", "setting": "HN-6 [21]", "value": "Active"},
      {"measurement": "Activity", "setting": "[22]", "value": "Active"},
      {"measurement": "Drug metabolism", "setting": "[23]", "value": "Metabolite detected"},
      {"measurement": "Activity", "setting": "[9]", "value": 10.85, "unit": "%"}
    ]},
    {"smiles": "COc1cc(CN2C(=O)CCC(N3C(=O)c4ccccc4C3=O)C2=O)c([N+](=O)[O-])cc1OC", "note": "(stereo not given)", "values": [
      {"measurement": "Drug metabolism", "setting": "[24]", "value": "Metabolite detected"},
      {"measurement": "Drug metabolism", "setting": "[25]", "value": "Metabolite detected"}
    ]}
  ]
}
